In data set [1] the test system is APP-CTFs (CTFα, AICD) in SKNSH-SY5Y APPwt cells. Nature of the data set: Western blotting of APP carboxy-terminal fragments (CTFα, AICD) in treated cells. The note with it: Homo sapiens, 24 h. Type of data set: cell-based. How it is done:
(§1) The human neuroblastoma cell line SKNSH-SY5Y APP^wt is cultured in Dulbecco's modified Eagle medium (Invitrogen) supplemented with 10% fetal calf serum (PAA), 2 mM L-glutamine (Invitrogen), 1 mM non-essential amino acids (Invitrogen), 50 units/ml penicillin/streptomycin (Invitrogen) and 200 μg geneticin (G418; Invitrogen) (selection for cell expressing APP) in a 5% CO2 humidified incubator at 37° C. Cells are seeded into 96-wells plates (20000 cells/well) for cytotoxicity assay and 12-wells plate (300000 cells/well) for western blotting for 18 h.
(§2) For western blotting, cells are incubated with 700 μl/well of each product at 10; 3; 1 and 0.31 μM in a 5% CO2 incubator at 37° C. for 24 h. The following day, culture medium samples are collected for ELISA assay and stored at −80° C. Cells are rinsed very slowly with cold PBS, snap-frozen on dry ice and immediately stored at −80° C.
Cells in twelve-well plates are collected in 50 μl Laemmli Lysis Buffer (pH 6.8, 50 mM Tris Base, 2% SDS, 20% Glycerol, 1 mM sodium pyrophosphate, 1 mM sodium orthovanadate and Protease Inhibitor Cocktail Complete Mini-Roche) per well. Cells are scrapped and lysates sonicated for 5 min.
Protein content is determined using the BCA Method (Pierce). Samples containing equal amounts of protein (35 μg total protein for mice and 20 μg total protein for cells per well) are heated at 85° C. for 2 min after thawing and electrophoresed for 2.45 h at 125 V in a 16% Tricine precast gels according to the protocol supplied with the NuPAGE system (Invitrogen). After size fractionation, the proteins are transferred onto nitrocellulose 0.2 μm pore-size membranes (Invitrogen) in the blot module of the NuPAGE sytem for 1 h at room temperature (RT). Blots are blocked for 1 h in TNT with 0.05% Tween 20 and 5% nonfat milk at RT, incubated overnight at 4° C. with anti-C term APP C1:3-2429 (1:250000) primary antibody and washed four times with TNT before being exposed to peroxidase labeled anti-mouse IgG (H+L) C4 94010 (1:50000; Vector) secondary antibody for […] at 25° C. The immunoreactions are detected with SuperSignal West Pico Chemiluminescent Substrate (Thermo specific, 34077). Images are scanned with LAS-3000 Image System (Global FUJIFILM) and bands quantified by ImageJ 1.37v computer program. The different APP-CTF bands are detected as a function of their molecular mass, as described in Vingtdeux, V., Hamdane, M., Gompel, M. et al. (2005) Phosphorylation of amyloid precursor carboxy-terminal fragments enhances their processing by a gamma-secretase-dependent mechanism. Neurobiol Dis, 20, 625-637. Graphs and statistical analysis of results is performed with Graph Pad Prism (version 4.02) computer program.

For data set [2], the system named is β-amyloid 1-42. Nature of the data set: Innotest β-amyloid 1-42 ELISA on SY5Y culture medium. Type of data set: cell-based. The note with it: Homo sapiens, 24 h, compared to a control with a value of 100, read-out: Aβ 1 μM*. How it is done: as §1, §2
The β-amyloid 1-42 rate is quantified in SY5Y cells-culture medium by using the Innotest β-amyloid 1-42 (80324 Innogenetics®) according to the manufacturer instructions. Briefly, Fresh culture medium is used to dilute the standard. Culture samples are centrifuged at 200 g at 4° C. during 5 minutes in order to eliminate cell fragments.
First, 75 μl of the conjugate working solution1 (3D6 biotinylated antibody) is added to a 21F12 Ab precoated well. Twenty five μl of pure supernatant samples are then added to the coated well, and incubated for 1 h. Then the plate is washed 5 times with the washing buffer. Then 100 μl of peroxidase-labeled streptavidin (conjugate working solution 2) is added and incubated for 30 min at RT. After washing the plate 5 times, 100 μl of tetramethyl benzidine (substrate working solution) is added onto the plate and incubated for 30 minutes in the dark. The reaction is stopped with 50 μl 0.9N sulfuric acid (stop solution). The absorbance is read at 450 nm.
A sigmoidal curve fitting (four parameter […] curve) is used to calculate the standard curve. The corresponding concentration of β-amyloid (1-42) in pg/ml is determined from the standard curve. Results are expressed in concentration of β-amyloid in pg per μg of total proteins. Graphs and statistic analyses (t Test) are performed with Graph Pad Prism computer program (V0.5).
A general note: ELISA stands for enzyme-linked immunosorbent assay.

The test system of data set [3] is APP-CTFα. Description: In vivo mice treatment, western blotting of APP-CTFs in prefrontal cortex. The note with it: C57Bl6 female mice, 12.5, 25, 50 mg/kg intraperitoneally once, prefrontal cortex 24 h after, versus vehicle. As for the experimental part: Test molecules are intraperitoneally injected to 4 month old C57BI6 females mice either at 12.5; 25; 50 mg/kg or vehicule once, and sacrificed 24 h after by decapitation. Brain is immediately removed and Prefrontal Cortex is dissected by using a cold zinc brain matrix. The total dissection time was <3 min from decapitation. Following dissection tissue is frozen in dry ice and then stored at −80° C. for western blotting.
Protein extracts of Prefrontal Cortex samples are prepared in 50 μl Laemmli Lysis Buffer (pH 6.8, 50 mM Tris Base, 2% SDS, 20% Glycerol, 1 mM sodium pyrophosphate, 1 mM sodium orthovanadate and Protease Inhibitor Cocktail Complete Mini-Roche) by trituration of the fragments in a 0.2 ml glass micro tissue grinder. […]
Protein content is determined using the BCA Method (Pierce). […] The immunoreactions are detected with SuperSignal West Pico Chemiluminescent Substrate (Thermo specific, 34077). Images are scanned with LAS-3000 Image System (Global FUJIFILM) and bands quantified by ImageJ 1.37v computer program. The different APP-CTF bands are detected as a function of their molecular mass, as described in Vingtdeux, V., Hamdane, M., Gompel, M. et al. (2005) Phosphorylation of amyloid precursor carboxy-terminal fragments enhances their processing by a gamma-secretase-dependent mechanism. […]
Background: Immunoblotting shows a protein as a band on a membrane.

A short description of data set [4]: Cytotoxicity CC50 on MRC-5. Type of data set: cell-based. As to conditions: human, MRC-5 cells.
The mark [5] stands for this setting: compared to a control with a value of 100, read-out: CTFα 1 μM*.
The mark [6] stands for this setting: AICD, compared to a control with a value of 100, read-out: AlCD 1 μM*.

What is called CC50 is the concentration giving 50% cytotoxicity. Broadly, the melting point is the temperature of the solid-liquid transition.

SMILES strings stand for the structures. Like-named read-outs stand apart in the source and are kept apart here. Bounds are passed on as bounds.

With `CN1CCN(c2ccc(Nc3ccnc4cc(Cl)ccc34)cc2CNC(C)(C)C)CC1` [compound 56, N-{3-[(tert-butylamino)methyl]-4-(4-methylpiperazin-1-yl)phenyl}-7-chloroquinolin-4-amine], the activity at 1 µM in data set [1] (setting [5]) amounted to 183%; in data set [1] (setting [6]) it was 823%; in data set [2], 45%.

`CN1CCN(c2ccc(Nc3ccnc4cc(Cl)ccc34)cc2CN2CCOCC2)CC1` [compound 57, 7-chloro-N-[4-(4-methylpiperazin-1-yl)-3-(morpholin-4-ylmethyl)phenyl]quinolin-4-amine]: the activity at 1 µM in data set [1] (setting [5]) stood at 194%; in data set [1] (setting [6]), 757%; in data set [2] it was 19%.

Consider `Cc1cc(Nc2ccnc3cc(Cl)ccc23)cc(CN2CCCC2)c1N1CCN(C)CC1` [compound 59, 7-Chloro-N-[3-methyl-4-(4-methylpiperazin-1-yl)-5-(pyrrolidin-1-ylmethyl)phenyl]quinolin-4-amine], for which the values for the activity at 1 µM in data set [1] (setting [5]), in data set [1] (setting [6]) and in data set [2] were 629%, 325% and 73%, respectively.

Take `CN(C)CCCN1CCN(C(=O)c2cc(Nc3ccnc4cc(Cl)ccc34)cc(C(=O)N3CCN(CCCN(C)C)CC3)c2)CC1` [compound 64, N-[3,5-Bis({4-[3-(dimethylamino)propyl]piperazin-1-yl}carbonyl)phenyl]-7-chloroquinolin-4-amine]: the results for the activity at 1 µM in data set [1] (setting [5]), in data set [1] (setting [6]) and in data set [2] were 106%, 669% and 31%, respectively.

With `Oc1c(CN2CCCC2)cc(Nc2ccnc3cc(Cl)ccc23)cc1CN1CCCC1` [compound 66, 4-[(7-Chloroquinolin-4-yl)amino]-2,6-bis (pyrrolidin-1-ylmethyl)phenol], the activity at 1 µM in data set [1] (setting [5]) was 754%; in data set [1] (setting [6]) it was 886%; in data set [2] it was 19%. In addition, the “production of APP-CTFα (optical density, FIG. 1)” value in data set [3] is listed as “increases the production of APP-CTFα”.

Take `COC(=O)c1cc(Nc2ccnc3cc(Cl)ccc23)cc(C(=O)N2CCN(CCCN(C)C)CC2)c1` [compound 69, Methyl 3-[(7-chloroquinolin-4-yl)amino]-5-({4-[3-(dimethylamino)propyl]piperazin-1-yl}carbonyl)benzoate]: the activity at 1 µM in data set [1] (setting [5]) stood at 126%; in data set [1] (setting [6]) it was 302%; in data set [2] it was 46%.

As for `CN1CCN(c2cc(Nc3ccnc4cc(Cl)ccc34)cc(N3CCN(C)CC3)c2)CC1` [compound 70, N-[3,5-bis(4-methylpiperazin-1-yl)phenyl]-7-chloroquinolin-4-amine], the activity at 1 µM in data set [1] (setting [5]) worked out at 687%; in data set [1] (setting [6]) it was 515%.

In the case of `CN1CCN(c2cc(O)cc(Nc3ccnc4cc(Cl)ccc34)c2)CC1` [compound 72, 3-[(7-chloroquinolin-4-yl)amino]-5-(4-methyl-piperazin-1-yl)phenol], the activity at 1 µM in data set [1] (setting [5]) stood at 105%; in data set [1] (setting [6]) it was 80%; in data set [2], 100%.

Turning to `N#Cc1cc(N)cc(Nc2cc[n+](CCN3CCCCC3)c3cc(Cl)ccc23)c1` [compound 74, 4-[(3-amino-5-cyanophenyl)amino]-7-chloro-1-[2-(piperidin-1-yl)ethyl]quinolin-1-ium chloride], the activity at 1 µM in data set [2] turned out to be 44%.

With `N#Cc1cc(/N=c2\ccn(CCN3CCCCC3)c3cc(Cl)ccc23)cc(NCCN2CCCCC2)c1` [compound 76, 3-({7-Chloro-1-[2-(piperidin-1-yl)ethyl]-1,4-dihydroquinolin-4-ylidene}amino)-5-{[2-(piperidin-1-yl)ethyl]amino}benzonitrile], the activity at 1 µM in data set [2] was determined as 76%.

Consider `N#Cc1cc(NCCN2CCCCC2)cc(Nc2ccnc3cc(Cl)ccc23)c1` [compound 77, 3-[(7-chloroquinolin-4-yl)amino]-5-{[2-(piperidin-1-yl)ethyl]amino}benzonitrile], for which the activity at 1 µM in data set [1] (setting [6]) is 618%; in data set [2] it was 85%.

In the case of `CCN(CC)Cc1cc(Nc2ccnc3cc(Cl)ccc23)ccc1F` [compound 84, 7-chloro-N-(3-((diethylamino)methyl)-4-fluorophenyl)quinolin-4-amine], the figures for the activity at 1 µM in data set [1] (setting [5]) and in data set [1] (setting [6]) were 358% and 209%, respectively. Besides, the CC50 in data set [4] is < 10 µM.

Compound `Clc1ccc2c(Nc3ccc(N4CCOCC4)c(CN4CCCC4)c3)ccnc2c1` [compound 86, 7-chloro-N-[4-(morpholin-4-yl)-3-(pyrrolidin-1-ylmethyl)phenyl]quinolin-4-amine] displayed a melting point of 187 to 188 °C.
